# In PMC6274259, “New 3-Cyano-2-Substituted Pyridines Induce Apoptosis in MCF 7 Breast Cancer Cells” (Molecules, 2016):
# Experiments:
# [1] = test system: MCF-7 human breast adenocarcinoma cell line; assay: WST-1 cell viability assay, MCF-7; type: cell-based; conditions: for IC50: WST-1, 24 h treatment, mean ± S.D of three independent experiments
# From the text: The synthesized compounds were screened for their cytotoxicity on five cancer cell lines, namely SK-OV-3, MCF-7, MDA-MB-231, HCT-116 and RKO, using a WST colorimetric assay. The assay principle is based upon the reduction of the tetrazolium salt WST-1 to formazan by cellular mitochondrial dehydrogenases present in viable cells. […] Among the latter compounds the benzohydrazide derivative 9a emerged with the lowest IC50 in this study against MCF-7 cells compared to 5-FU. […] Based on the fact that 9a had less cytotoxic effects on normal breast epithelial cells it was subjected to further studies.
# The following cell lines were used for the screening stage, obtained from the American Type Culture Collection (ATCC, Manassas, VA, USA); SK-OV-3 (HTB-77), MCF-12A (ATCC CRL-10782), MDA-MB-231 (ATCC HTB-26), HCT-116 (CCL-247), RKO (CRL-2577) and sub-culturing of the above cell lines was conducted in 75 cm^2 flasks. The old culture media was removed and discarded after assessing the confluency of the cells and the cells were rinsed with 2–3 mL diluted trypsin (1×) (trypsin/EDTA solution consists of 0.025% trypsin and 0.01% EDTA in PBS), for about 5 minutes for complete detachment. The cells were observed under the inverted microscope until the cell layer is completely dispersed. 75 cm^2 flasks were prepared and 16 mL of DMEM media for SK-OV-3, MCF-7, MDA-MB-231, (DMEM 4500 mg glucose) and RPMI media for HCT-116 were added to each flask. The cells were aspirated gently and added to the flasks. DMEM 4500 mg/L high glucose with 10% FBS, 5% streptomycin and penicillin, RPMI 1640 (prepared by adding 5% heat-inactivated FCS and 2 mm glutamine) were used. DMEM was also used for MCF-12A cells with the addition of human epidermal growth factor 20 ng/mL, insulin 0.01 mg/mL and hydrocortisone 500 ng/mL.
# The synthesized compounds were screened for their anti-proliferative activity using 5-FU (F6627-1G, Sigma-Aldrich, St. Louis, MO, USA) as reference compound. A concentration of 0.4% DMSO was used in all experiment after ensuring 100% viability of the cell lines with this concentration. A 25 mM stock concentration of all compounds was prepared for further studies and analysis.
# Cells were trypsinized and placed in a 15 mL Falcon tube, the cells were centrifuged for 3 min at 1000 rpm. Trypsin is decanted using a sterile pipette and then the pellet is loosened by flicking the tube few times then 5–10 mL warm DMEM or RPMI were added to the Falcon tube and the pellet is resuspended. Cell count was done next by taking 10 μL of the suspension into the cell counting slide and read under 10× cells/mL. A cell stock of 50,000 cells/mL was prepared for the 96 wells. Cells (100 μL) were added to each well using a sterile pipette each time to ensure consistency. The experiment was planned ahead of time using excel sheet, 3–6 wells were reserved as blank media while 3–6 wells for vehicle (DMSO). The plate was incubated for 24 h for compound treatment step. DMEM media was used to prepare different dilutions of the compounds. The old DMEM media was removed from the wells using sterile pipette in the hood and the media was replaced with 100 μL media with each compound. The plate was incubated for 24 h. After 24 h incubation, WST-1 reagent (Sigma) was added to each well and then the plate was incubated for 1 h before measuring the absorbance using VICTOR™ Multilabel Plate Reader (Perkin Elmer, Beaconsfield, UK). The absorbance of the colored solution can be quantified by measuring at a certain wavelength (usually between 500–600 nm), in this experiment the first reading was conducted at 540 nm and the second reading at 690 nm for the reference wavelength. The percentage of cell viability was determined as the ratio of the absorbance of the sample vs the control. Three independent experiments were performed. […] 5-Florouracil (Sigma-Aldrich, F6627-1G) was used as reference standard.
# MCF-7 cells [2] = assay: TUNEL assay; type: cell-based, human; conditions: 2 μM, 24 h, compared to control group
# From the text: To ascertain induction of apoptosis of compound 9a on MCF-7 cells, the results were confirmed by immune histochemical analysis using a TUNEL assay. TUNEL assay involves labeling of the 3'-hydroxyl DNA ends generated during DNA fragmentation by means of rTdT and labeled dUTP. The localized fluorescence of apoptotic cells (labeled-dUTP) in a blue background (DAPI) for nuclei staining or green background (FITC) was visualized using fluorescence microscope.
# For in situ detection of apoptotic cells, a terminal-deoxynucleotidyl transferase meditated nick end labeling (TUNEL) assay was performed using DeadEndTM fluorimetric tunnel system (Promega, Madison, WI, USA). Cells were cultured on 4-chamber slides (VWR, Radnor, PA, USA) at a density of 2 × 10^4 cells/ chamber. After treatment with compound 9a, cells were washed with phosphate buffer saline (PBS) and fixed by incubation in 4% paraformaldehyde (PFA) for 20 min at 4 °C, then permeabilized with 0.05% Triton X-100 for 5 min at 4 °C. The fixed cells were then incubated with […] dUTP in terminal deoxynucleotide transferase recombinant (rTdT)-catalyzed reaction and nucleotide mixture for 60 min at 37 °C in a humidified atmosphere and then immersed in stop/wash buffer for 15 min at room temperature. Cells were then washed with PBS to remove unincorporated fluorescein-12-dUTP. […]
# MCF-7 cells [3] = assay: Flow cytometric cell cycle analysis (PI staining); type: cell-based, human; conditions: 2 μM, 24 h; control group 37%
# Description: Flow cytometry is considered one of the specific tools for the investigation of molecular and morphological events occurring during cell death and cell proliferation. Therefore, the effect of compound 9a on cell cycle progression was studied by flow cytometry in propidium iodide (PI) stained cells. The percent of cells in G1, S, G2 phases was determined after treating cells with 2 μM of 9a for 24 h (Figure 4D). […] Thus, it can be concluded that compound 9a inhibits the proliferation of MCF-7 cells and the growth inhibition is associated with induction of G1 phase arrest. p27 is considered as an important regulator of cell cycle. To determine whether compound 9a-induced G1 arrest was associated with increased p27 level, and to study the effect on the expression of CDK2 and CDK4 involved in cell cycle progression, cells were analyzed for the expression of these proteins using western blot analysis after treatment with 2 μM of 9a for 24 h.
# MCF-7 cells were seeded in 25 cm^2 flasks until reaching the desirable confluence of 1 million cells and media was changed to media containing compound 9a (2 μM). After 24 h incubation, the cells were harvested by trypsinization to detach the cells without affecting the integrity of the cell membrane. The cells were incubated with PI for 5 min at room temperature, washed twice with PBS and […]. […]
smiles,measurement,setting,value
"COc1ccc(-c2cc(-c3ccc(OC)c(OC)c3)c(C#N)c(OCC(=O)NNC(=O)c3ccccc3)n2)cc1OC [Compound 9a, N'-[2-(3-cyano-4,6-bis(3,4-dimethoxyphenyl)pyridin-2-yloxy)acetyl]benzohydrazide]",IC50,"[1]; Homo sapiens, MCF7, 24 h",2 µM
same,viability at 2 µM,"[1]; Homo sapiens, MCF7, 2 μM, 24 h, WST-1, read-out: cell viability in MCF-7 cells",~50%
same,IC50,[1],2.04 ± 0.13 µM
same,TUNEL staining,MCF-7 cells [2],presence of nuclear condensation and TUNEL-positive cells
same,percent of G1 population,MCF-7 cells [3],54%
